For assay [1], the system named is mAb 1H11. The note with it: linear peptides in which K is simply lysine; WO 91/08478; Hanson et al. 1992; cited from earlier work.
Assay [2] concerns mAb 1H11. As to the kind of experiment: OSTEOMARK competitive immunoassay testing apparent affinity of synthetic peptides for mAb 1H11. Conditions: for Results: peptide binding to mAb 1H11, 1 μg synthetic peptide = X nmole BCE: nanomoles Bone Collagen Equivalents equivalent to 1 μg peptide, back fit into OSTEOMARK standard curve, values between 0.5 and 1 OD averaged; for binding to mAb 1H11 (in words): synthetic peptide, antibody inhibition assay. Format: binding. The text has this: Generally, a milligram per mL solution of the peptide was made in PBS. The absorbence at A280 was read and the concentration confirmed. Dilutions of the peptide were then made in a buffer such as OSTEOMARK (TM) calibrator diluent (OSTEOMARK Assay, Ostex International, Seattle, Wash.). Working strength concentrations were between 10 and 0.01 micrograms per milliliter.
To test the apparent affinity of the synthetic peptides for mAb 1H11, the OSTEOMARK assay was run using OSTEOMARK kits and components, including monoclonal antibody 1H11. A standard curve was run using OSTEOMARK calibrators. Peptide samples were generally tested at 10, 3, 1, and down to 0.01 μG per mL. The standard OSTEOMARK curve was generated using a four parameter logistic curve fit program (MedData Inc., N.Y., N.Y.). Peptide values were back fit into the standard curve and values were reported in picomoles Bone Collagen Equivalents (BCE)/mL (which equals nanomolar BCE, or nM BCE).
Values in the Table are reported as the number of nanomoles of BCE equivalent to a microgram of a given peptide. Antibody binding values below 500 nMole BCE were considered to be commercially insignificant.

Non-standard residues stand in square brackets, D forms with d. Residues, ends and D or L forms follow the SMILES beside them. Aad = N[C@@H](CCCC(=O)O)C(=O)O; pGlu = O=C1CC[C@@H](C(=O)O)N1; Nva = CCC[C@H](N)C(=O)O

The values that follow come from patent US5817755A, “Synthetic peptide analogs of cross-linked N-telopeptides of type I collagen” (Washington Research Foundation, priority 1997, dated 1998).

Turning to `CC(C)[C@H](NC(=O)CNC(=O)[C@H](CCCCN)NC(=O)CNC(=O)[C@H](CC(=O)O)NC(=O)[C@H](Cc1ccc(O)cc1)NC(=O)[C@@H]1CCC(=O)N1)C(=O)NCC(=O)O` [SEQ ID NO:9, J Y D G K G V G] ([pGlu]YDGKGVG-OH), the “recognition by mAb 1H11 (in words)” value in the assay with mAb 1H11 [1] is “recognized very weakly”. Besides, in the assay on mAb 1H11 [2], the “Results: peptide binding to mAb 1H11, 1 μg synthetic peptide = X nmole BCE” value (shortened to “Results: peptide binding to mAb 1H11”) is on record as 100 nmole BCE and the “binding to mAb 1H11 (in words)” value is recorded as “very weak binding partner”. Turning to `CC(C)[C@H](NC(=O)CNC(=O)[C@H](CCC(=O)O)NC(=O)[C@H](C)NC(=O)[C@H](CC(=O)O)NC(=O)[C@H](Cc1ccc(O)cc1)NC(=O)[C@@H]1CCC(=O)N1)C(=O)NCC(=O)O` [SEQ ID NO:27, J Y D A E G V G] ([pGlu]YDAEGVG-OH), in the assay with mAb 1H11 [2], the “Results: peptide binding to mAb 1H11” value is reported as less than 50 nmole BCE and the “binding to mAb 1H11 (in words)” value is “substantially eliminates mAb 1H11 binding affinity”.

For `CC(C)[C@H](NC(=O)[C@H](C)NC(=O)[C@H](CCC(=O)O)NC(=O)CNC(=O)[C@H](CC(=O)O)NC(=O)[C@H](Cc1ccc(O)cc1)NC(=O)[C@@H]1CCC(=O)N1)C(=O)NCC(=O)O` [SEQ ID NO:28, J Y D G E A V G] ([pGlu]YDGEAVG-OH), in the assay with mAb 1H11 [2], the “Results: peptide binding to mAb 1H11” value is given as less than 50 nmole BCE and the “binding to mAb 1H11 (in words)” value was “loss of mAb 1H11 binding affinity”. As to `CC(C)[C@H](NC(=O)CNC(=O)[C@H](CCC(=O)O)NC(=O)CNC(=O)[C@H](CCC(=O)O)NC(=O)[C@H](Cc1ccc(O)cc1)NC(=O)[C@@H]1CCC(=O)N1)C(=O)NCC(=O)O` [SEQ ID NO:30, J Y E G E G V G] ([pGlu]YEGEGVG-OH), the “Results: peptide binding to mAb 1H11” value with mAb 1H11 [2] turned out to be 3000 nmole BCE. `CC(C)[C@H](NC(=O)CNC(=O)[C@H](CC(=O)O)NC(=O)CNC(=O)[C@H](CC(=O)O)NC(=O)[C@H](Cc1ccc(O)cc1)NC(=O)[C@@H]1CCC(=O)N1)C(=O)NCC(=O)O` [SEQ ID NO:31, J Y D G D G V G] ([pGlu]YDGDGVG-OH): in the assay on mAb 1H11 [2] (listed as 31), the “Results: peptide binding to mAb 1H11” value is on record as 1400 nmole BCE. Consider `CC(C)[C@H](NC(=O)CNC(=O)[C@H](CC(=O)O)NC(=O)CNC(=O)[C@H](CCC(=O)O)NC(=O)[C@H](Cc1ccc(O)cc1)NC(=O)[C@@H]1CCC(=O)N1)C(=O)NCC(=O)O` [SEQ ID NO:32, J Y E G D G V G] ([pGlu]YEGDGVG-OH), for which, in the assay on mAb 1H11 [2], the “Results: peptide binding to mAb 1H11” value was 1000 nmole BCE. Same read-out and setting: with `CC(C)[C@H](NC(=O)CNC(=O)[C@H](CCCC(=O)O)NC(=O)CNC(=O)[C@H](CC(=O)O)NC(=O)[C@H](Cc1ccc(O)cc1)NC(=O)[C@@H]1CCC(=O)N1)C(=O)NCC(=O)O` [SEQ ID NO:34, J Y D G X^4 G V G] ([pGlu]YDG[Aad]GVG-OH) the figure was 750 nmole BCE. Turning to `CC(C)[C@H](NC(=O)CNC(=O)[C@H](CCC(=O)O)NC(=O)CNC(=O)[C@H](CC(=O)O)NC(=O)[C@H](Cc1ccccc1)NC(=O)[C@@H]1CCC(=O)N1)C(=O)NCC(=O)O` [SEQ ID NO:36, J F D G E G V G] ([pGlu]FDGEGVG-OH), in the assay with mAb 1H11 [2], the “Results: peptide binding to mAb 1H11” value is recorded as 14 nmole BCE and the “binding to mAb 1H11 (in words)” value is on record as “blocks mAb 1H11 binding”.

As to `CC(C)[C@H](NC(=O)CNC(=O)[C@H](CCC(=O)O)NC(=O)[C@@H](NC(=O)[C@H](CC(=O)O)NC(=O)[C@H](Cc1ccc(O)cc1)NC(=O)[C@@H]1CCC(=O)N1)C(C)C)C(=O)NCC(=O)O` [SEQ ID NO:37, J Y D V E G V G] ([pGlu]YDVEGVG-OH), in the assay with mAb 1H11 [2], the “Results: peptide binding to mAb 1H11” value is 6 nmole BCE and the “binding to mAb 1H11 (in words)” value is listed as “substantially eliminates mAb 1H11 binding affinity”. Regarding `CCC[C@H](NC(=O)CNC(=O)[C@H](CC(=O)O)NC(=O)[C@H](Cc1ccc(O)cc1)NC(=O)[C@@H]1CCC(=O)N1)C(=O)NCC(=O)N[C@H](C(=O)NCC(=O)O)C(C)C` [SEQ ID NO:38, J Y D G X^5 G V G] ([pGlu]YDG[Nva]GVG-OH), the “Results: peptide binding to mAb 1H11” value in the assay on mAb 1H11 [2] is recorded as 860 nmole BCE.

Turning to `CC(C)[C@H](NC(=O)CNC(=O)[C@H](CCC(=O)O)NC(=O)CNC(=O)[C@H](CC(=O)O)NC(=O)[C@H](Cc1ccc(O)cc1)NC(=O)[C@@H]1CCC(=O)N1)C(=O)NCC(N)=O` [SEQ ID NO:44, J Y D G E G V X^6] ([pGlu]YDGEGVG-NH2), in the assay on mAb 1H11 [2], the “Results: peptide binding to mAb 1H11” value was less than 50 nmole BCE and the “binding to mAb 1H11 (in words)” value is “prevented recognition”. The like results for J Y D G C G V G [SEQ ID NO:2] were, in that order, 2500 nmole BCE and “excellent binding to mAb 1H11”. With “J Y D G E G V G L [SEQ ID NO:40, b13: -Lys added to the C-terminus]”, in the assay on mAb 1H11 [2], the “Results: peptide binding to mAb 1H11” value was less than 50 nmole BCE and the “binding to mAb 1H11 (in words)” value is on record as “prevents mAb 1H11 binding”. The like results for J Y D G E G V G [SEQ ID NO:29] were, in that order, less than 50 nmole BCE and “eliminate the requisite binding of mAb 1H11”.
